Source: patent publication US9364413B2, “Method for anti-aging treatment by surfactin in cosmetics via enhancing sirtuin” (UMO International Co., Ltd., priority 2014, dated 2016)
Peptide text beside a SMILES is read from it.

Columns and labels:
sirtuin 1 gene = test: mRNA expression of the long-lived gene sirtuin 1 by real-time quantitative PCR; assay type: cell-based; conditions: mouse embryo fibroblasts
Source text: Total RNA was extracted from human skin fibroblasts and mouse embryo fibroblasts using TRIzol reagent (Invitrogen, USA), analyzed by RNA gel electrophoresis and subjected to RT-PCR for amplification of human skin fibroblasts sirtuin 1 and sirtuin 3 and mouse embryo fibroblasts sirtuin 1. GeneBan was used to identify well known sequences of sirtuins and GCG program was utilized to search for sequences with high similarity. A primer set was designed for polymerase chain reaction (PCR), followed by 1.2% agarose gel electrophoresis of a small portion of the reaction product to confirm the expected product has been amplified. Once confirmed, the remaining product was subjected to low-melting point agar gel electrophoresis, the product was excised from the gel and the specific size of DNA fragment was purified by gel extraction for cloning. The purified DNA fragment was ligated with the cloning vector pGEM-T-easy vector (pGEM-T-easy cloning kit, Promega, USA) before transformed into the competent cells. Finally, after small scale culture, cloning vector was extracted for sequencing, and the sequence data was compared using the BLAST program of NCBI. Part of the human skin fibroblast sirtuin 1 and sirtuin 3 and mouse embryo fibroblasts sirtuin 1 were correctly cloned by the abovementioned cloning procedures and the selected clones were transformed into competent cells again for extraction of plasmid with high purity for future experiments.
RNA is easily degraded in natural environment by RNase and thus all tools used must be autoclaved and dried in an oven prior to conducting experiments and wear gloves and masks during the procedures. Quickly add 800 μL TRIzol™ reagent to the culture dish of the experimental group and transfer the washed off cells to a sterile tube. Add chloroform to the tube in the volume of ⅕ of the total volume of TRIzol™ reagent and shake vigorously for 30 seconds. After incubation at room temperature for 15 minutes, centrifuge at 13200 rpm for 15 minutes at 4° C. and transfer the supernatant to a new 1.5 mL eppendorf. RNA is present in the aqueous phase of the supernatant. Transfer the supernatant to another clean 1.5 mL eppendorf and add Isopropanol in the volume of ½ of TRIzol™ reagent and high salt solution (1.2 M Sodium Chloride and 0.8 M Sodium citrate), mix well and incubate at −20° C. for 30 minutes, followed by centrifugation at 13200 rpm for 15 minutes at 4° C. to precipitate RNA; remove the supernatant carefully and add 800 μL of 100% absolute ethanol to wash and centrifuge at 13200 rpm for 10 minutes at 4° C. before washing with 100% ethanol. Carefully remove the supernatant and dry the RNA precipitate at 55° C. for 5 minutes. Dissolve the RNA precipitate in 15 μL DEPC water and incubate at 55° C. for 10 minutes and store at −80° C. freezer for future use.
Place 5 μg of total RNA in a 200 μL eppendorf and adjust the volume to 13 μL with DEPC water, add 1 μL of oligo(dT) 18, 10 mM dNTPs and incubate on ice. Add 4 μl of 5×AMV buffer and 1 μl of AMV (40 units/μL) and mix well. […]
The fluorescent dye SYBR green I can be embedded in the groove of double-stranded DNA and generate fluorescence when excited by a halogen light and its intensity can then be measured. When SYBR green I is not embedded in the groove of double-stranded DNA, its fluorescence background value is very low; and when it starts to integrate into the amplified target gene sequence, the fluorescence signal of SYBR green I will also be increased accordingly. […]

mouse embryo fibroblasts [1] = test: cell proliferation of mouse embryo fibroblasts; assay type: cell-based; conditions: 48 hours
mouse embryo fibroblasts [2] = test: anti-photoaging: cell survival after UV-A irradiation (MTT method); assay type: cell-based; conditions: for cell survival rate after UV irradiation: 24 hours
Experimental: After incubation for 24 hours, cell survival rates were measured by the MTT method.

mouse embryo fibroblasts [3] = test: anti-oxidation: cell survival after hydrogen peroxide treatment (MTT method); assay type: cell-based
Experimental: Following subculture of the mouse embryo fibroblasts and incubation for 4 hours for attachment, hydrogen peroxide was used to treat the cells as the source of oxidation. The cells were treated with 100, 150, 200 and […] of hydrogen peroxide before addition of 25, 50, 75 and 100 μM of surfactin for another 24 hours. Cell survival rate was measured by the MTT method.

collagen = test: Sircol soluble collagen assay; assay type: cell-based, mouse; conditions: 24 hours
Experimental: Sircol™ soluble collagen assay kit was used for analysis the total concentration of collagen in the culture media and the general method is described as follows:
Place 0.1 ml of the test samples and the standards at different concentrations in separate 1.5 mL centrifuge tubes. Add 1 mL of dye reagent and vortex for 35 minutes, followed by centrifugation at 12000 rpm for 10 minutes and remove the supernatant. Carefully remove the residue water at the side of the tube to avoid contact with the precipitate. Add 1 mL of Alkali reagent to dissolve the precipitate and transfer 0.2 mL to a 96-well pate after the color has developed and measure absorbance at 570 nm using an ELISA reader.

[4] = skin penetration of FITC-labeled dexamethasone in mice; assay type: in vivo; conditions: 0.2, 0.5, 1 and 2% surfactin, 1 hour, back of mice, fluorescence intensity
Experimental: (§1) Before the experiment, the back of the mice was shaved. Mice aged 6-8 weeks were anesthetized by intraperitoneal injection using (Zoletil) and lay the animal flat before shaving the back with a electric razor and remove the remaining hair with hair removal cream. Place the animals in the cages with a warming light and provide water in each cage. Two groups are include in the experiment: for the control group, 100 μl of PBS (pH=7.4) was mixed with fluorescein isothiocyanate (FITC)-labeled HA or dexamethasone before added to 1 cm2 sterile cotton and affixed to the back of the mice; for the experimental group, FITC-labeled HA or dexamethasone was mixed with 0, 0.2, 0.5, 1, 2 and 5% surfactin for 1 hour.
(§2) At the end of 1 hour treatment, sacrificed the mice with CO2 asphyxiation, clean up the drug residue on the skin with ethanol and cut the skin on the back and embedded in Optimum cutting temperature compound (O.C.T) (SAKURA®, Japen) for cryosection (CM-2000, Leica, Germany).

[5] = skin absorption of FITC-labeled hyaluronic acid in mice; assay type: in vivo; conditions: 1 hour, back of mice
Experimental: as §1, §2

[6] = skin absorption of FITC-labeled poly-γ-glutamic acid in mice; assay type: in vivo; conditions: 1, 2, 5, 10, 15 and 20% surfactin, 1 hour, back of mice, fluorescence intensity
[7] = percutaneous penetration of gold nanoparticles in mice; assay type: in vivo; conditions: 12.5 ppm surfactin, gold nanoparticles 2 nm, mice (BALB/c)
Source text: We applied the mix of gold nanoparticles and surfactin to the skin of mice for a certain period of time and collected the skin for cryosection. Because gold nanoparticles is self-luminous, optical microscope can be used to observe the content of fluorescence of gold nanoparticles in epidermis and dermis of the skin. The results indicated skin care paste obtained by conventional methods is not helpful for gold nanoparticle absorption by the skin due to its internal gel-mass like or gel-bundle like structure and thus gold nanoparticles were only found in the epidermis.

[8] = emulsifying power in diesel, emulsification index (E24); assay type: physicochemical
Experimental: After incubation at room temperature for 24 hours, emulsification index (E24) was measured.
The emulsifying power is one of the important indicator of surfactants, and present invention utilized the method published by Cooper et. al to measure the emulsification index of surfactants in diesel. Different concentrations of crude surfactin was dissolved in buffer solutions at pH 6.4, 7.4 and 8.4, and 2 ml of the dissolved mixture was added to a test tube containing 3 ml of diesel, vortex for 2 minutes and incubate at room temperature for 24 hours before measurement. The ration of height of the emulsifying phase and the total height of the solution multiplied by 100% will give the emulsification index of the test solution. The emulsifying power of oil products is represented as the emulsification index (E24), wherein the equation of E24 is shown as follows: E24(%)=(height of the emulsifying phase/total height of solution)×100%.

[9] = foaming power, foam maximum density (MD); assay type: physicochemical; conditions: buffer pH 7.4, more than 150 μg of surfactin, surfactin produced by Bacillus subtilis TH
Experimental: Measure the height of the foam and calculate the foam maximum density (MD).
Surfactants are […] and present invention examined the foaming property of crude surfactin. The method developed by Razafindralambo et. al was referenced and different concentrations of crude surfactin was dissolved in a buffer solution with a pH at 7.4, vortex for 2 minutes and followed by incubation for 1 hour. The height of the foam was then measured and the foaming power is expressed as foam maximum density (MD) which is obtained by dividing the […].

[10] = turbidity of diluted shampoo and corecervate formation; assay type: physicochemical
Experimental: (1) Adjust the relative concentration of the shampoo to 0.01-1.0
Relative concentration=shampoo liquid (g)/(shampoo liquid (g)+water (g))
(2) Measure the transmittance rate (%, temperature at 40° C.) of the […] solution (1) and the turbidity is represented as =100−transmittance rate (%)

[11] = Razafindralambo et al.; cited from earlier work

With CC(C)CCCCCCCCC[C@@H]1CC(=O)N[C@@H](CCC(=O)O)C(=O)N[C@@H](CC(C)C)C(=O)N[C@H](CC(C)C)C(=O)N[C@@H](C(C)C)C(=O)N[C@@H](CC(=O)O)C(=O)N[C@H](CC(C)C)C(=O)N[C@@H](CC(C)C)C(=O)O1 [surfactin] (HELM PEPTIDE1{E.L.[dL].V.D.[dL].L}|CHEM1{[CC(C)CCCCCCCCC[C@H](CC(=O)[*:1])O[*:2]]}$PEPTIDE1,CHEM1,1:R1-1:R1|PEPTIDE1,CHEM1,7:R2-1:R2$$$V2.0) the “concentration with the best effect in enhancement of sirtuin 1 expression” value (sirtuin 1 gene; 0-100 μM tested, 6-48 hours) was 50 µM, the “expression of the sirtuin 1 gene” value (sirtuin 1 gene; 6 hours, 50 μM and 75 μM surfactin) was “enhance expression of the sirtuin 1 gene” and the “expression of the sirtuin 1 gene” value (sirtuin 1 gene; 12 hours, 25 μM surfactin) was “enhancement of expression of the sirtuin 1 gene”. For the same compound, the “expression of the sirtuin 1 gene” value (sirtuin 1 gene; 36 hours, 50 μM and 100 μM surfactin) was “enhancement of expression of the sirtuin 1 gene”, the “expression of the sirtuin 1 gene” value (sirtuin 1 gene; 48 hours, 50 μM surfactin) was “enhancement of expression of the sirtuin 1 gene” and the “mouse embryo fibroblast proliferation” value (mouse embryo fibroblasts [1]; 0, 25, 50, 75 and 100 μM) was “can enhance mouse embryo fibroblast proliferation”. The “concentration with the best effect in inducing cell proliferation” value (mouse embryo fibroblasts [1]; followed by 50 μM) was 75 µM, the “cell proliferation compared with resveratrol and Palmitoyl pentapeptide-3” value (mouse embryo fibroblasts [1]; resveratrol 0-30 μM, Palmitoyl pentapeptide-3 0-10 μM) was “better effect in inducing cell proliferation” and the “cell survival rate after UV irradiation” value (mouse embryo fibroblasts [2]; UV 10 J/cm^2, 25, 50, 75, 100 and 125 μM surfactin) was “increase cell survival rate”. The “concentration with the best protection after UV irradiation” value (mouse embryo fibroblasts [2]; UV 10 J/cm^2, 24 hours) was 75 µM, the “cell survival rate after UV irradiation” value (mouse embryo fibroblasts [2]; UV 15 J/cm^2, 25, 50, 75, 100 and 125 μM surfactin) was “increase cell survival rate” and the “concentration with the best protection after UV irradiation” value (mouse embryo fibroblasts [2]; UV 15 J/cm^2, 24 hours) was 50 µM. For the same compound, the “protective effect against hydrogen peroxide” value (mouse embryo fibroblasts [3]; 25, 50 and 75 μM surfactin) was “good protective effect”, the “survival rate of mouse embryo fibroblasts treated with hydrogen peroxide” value (mouse embryo fibroblasts [3]; hydrogen peroxide 100-250 μM, surfactin 24 hours, MTT) was “can increase the survival rate” and the “collagen proliferation in mouse embryo fibroblasts” value (collagen; 25, 50, 75 and 100 μM, compared with PBS control) was “great effects in increasing collagen proliferation”. For the same compound, the “concentration with the best result in increasing collagen” value (collagen) was 100 µM, the “skin penetration of dexamethasone” value [4] was “can enhance skin penetration of dexamethasone” and the “hyaluronic acid (HA) absorption by the skin” value ([5]; 0.2-5% surfactin, fluorescence intensity) was “can increase hyaluronic acid (HA) absorption by the skin”. For the same compound, the “surfactin concentration with the best effect on enhancing skin absorption of HA” value [5] was 1%, the “skin absorption of γ-GPA” value [6] was “can all increase skin absorption of γ-GPA” and the “percutaneous absorption of gold nanoparticles” value [7] was “significantly enhance the percutaneous absorption of gold nanoparticles”. For the same compound, the “pH of the best emulsifying power” value ([8]; pH 6.4, 7.4 and 8.4 tested, E24 after 24 hours) was 7.4, the “concentration of the best emulsifying power” value ([8]; pH=7.4) was 160 μg/m and the “foam maximum density (MD), minimum” value [9] was 1.23. The “turbidity of the shampoo” value ([10]; compared with sodium laureth sulfate, 40° C., relative concentration 0.01-1.0) was “can further reduce the turbidity of the shampoo”, the corecervate formation ([10]; shampoo during flushing / dilution) was “corecervate will occur at low concentrations” and the “MD value of surfactin” value [11] was at least 0.10.
In the case of “palmitoyl pentapeptide-3 [reference compound]”, the “collagen effect compared with surfactin” value (collagen) is reported as “not as good as surfactin” and the “collagen content in the cells” value (collagen; Palmitoyl pentapeptide-3 3, 5, 8 and 10 μM) is reported as “can also increase collagen content”.
